Like-named read-outs stand apart in the source and are kept apart here.
Assays:
Format in all cases: in vivo
Malva pusilia = assay: Post-emergence herbicidal action against Malva pusilia; conditions: 42 DAT; 720 g a.i./ha
Amaranthus palmeri = assay: Post-emergence herbicidal action against Amaranthus palmeri; conditions: for pest or weed control at 5 g/ha: 5 g of a.i./ha; for pest or weed control at 15 g/ha: 15 g of a.i./ha
In short: (§1)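 Seeds or rhizome pieces were grown in sandy loam in pots in a greenhouse, and plants were sprayed at the three-leaf stage, three weeks after sowing. Spray powders or emulsion concentrates were applied in various dosages at 300 to 800 l/ha water. Efficacy was scored visually after 3 to 4 weeks against untreated controls.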

Ipomoea ssp. = assay: Post-emergence herbicidal action against Ipomoea ssp.; conditions: 45 DAT
Lysimachia nummularia = assay: Post-emergence herbicidal action against Lysimachia nummularia; conditions: 45 DAT; 720 g a.i./ha
Brachiaria platyphylla = assay: Post-emergence herbicidal action against Brachiaria platyphylla
Experimental: (§2) When the observed efficacies exceed the formal sum total of the values of the tests with individual applications, they also exceed the expected value according to Colby, which is calculated using the formula below and is likewise regarded as an indication of synergism (cf. S. R. Colby; in Weeds 15 (1967) p. 20 to 22): E^C=A+B−([…])
(§3) Here: • A=efficacy of the active compound (A) in % at an application rate of a g a.i./ha; • B=efficacy of the active compound (B) in % at an application rate of b g a.i./ha; • E^C=expected value of the effect of the combination (A)+(B) in % at the combined application rate a+b g a.i./ha.
(§4) Seeds or rhizome pieces of mono- and dicotyledonous weeds are placed in sandy loam in pots, covered with soil and grown in a greenhouse under good growth conditions (temperature, air humidity, water supply). Three weeks after sowing, the test plants were treated at the three-leaf stage with the compositions according to the invention. The compositions according to the invention formulated as spray powders or as emulsion concentrates were sprayed onto the green plant parts in various dosages with an application rate of 300 to 800 l/ha of water (equivalent). After the test plants have been left to stand in the greenhouse under optimal growth conditions for about 3 to 4 weeks, the action of the preparations is scored visually in comparison to untreated controls. The compositions according to the invention also have good post-emergence herbicidal activity against a broad spectrum of economically important gramineous and broadleaf weeds.

Setaria viridis = assay: Post-emergence herbicidal action against Setaria viridis; conditions: 5 g of a.i./ha, post-emergence
Experimental: as §2, §3, §4

Sorghum halepense = assay: Post-emergence herbicidal action against Sorghum halepense
Experimental: as §2, §3, §4

Bidens pilosa = assay: Post-emergence herbicidal action against Bidens pilosa
In short: as §1

Ipomoea hederacea = assay: Post-emergence herbicidal action against Ipomoea hederacea; conditions: 37.5 g of a.i./ha, post-emergence
Experimental: as §2, §3, §4

Abutilon theophrasti = assay: Post-emergence herbicidal action against Abutilon theophrasti; conditions: 75 g of a.i./ha
Digitaria sanguinalis = assay: Post-emergence herbicidal action against Digitaria sanguinalis
In short: as §1

[1] = 15 g of a.i./ha, post-emergence, block with (B1.14) Tembotrione
[2] = 45 g of a.i./ha, post-emergence, block with (B1.14) Tembotrione
[3] = Amaranthus palmeri, post-emergence, 504 h, post-emergence, block with (B1.14) Tembotrione, read-out: Herbicidal action 21 DAT [%] against Amaranthus palmeri
[4] = Amaranthus palmeri, post-emergence, 504 h, read-out: Herbicidal action 21 DAT [%] against Amaranthus palmeri

## O=C(O)CNCP(=O)(O)O [(B7.5) Glyphosate (CAS 39600-42-5)]
Malva pusilia
  Herbicidal action: 0%
Amaranthus palmeri; 16 DAT, 1440 g a.i./ha
  Herbicidal action: 2%
Ipomoea ssp.; 720 g a.i./ha
  Herbicidal action: 0%
Ipomoea ssp.; 1440 g a.i./ha
  Herbicidal action: 0%
Lysimachia nummularia
  Herbicidal action: 7%

## CS(=O)(=O)c1ccc(C(=O)C2C(=O)CCCC2=O)c(Cl)c1COCC(F)(F)F [(B1.14) Tembotrione, tembotrione, reference compound]
Brachiaria platyphylla; [1]
  Herbicidal action 21 DAT [%] against Brachiaria platyphylla: 50%
Brachiaria platyphylla; [2]
  Herbicidal action 21 DAT [%] against Brachiaria platyphylla: 50%
Setaria viridis
  Herbicidal action 21 DAT [%] against Setaria viridis: 10%
Sorghum halepense; 5 g of a.i./ha, post-emergence
  Herbicidal action 21 DAT [%] against Sorghum halepense: 30%
Sorghum halepense; 15 g of a.i./ha, post-emergence
  Herbicidal action 21 DAT [%] against Sorghum halepense: 50%
Bidens pilosa; 5 g of a.i./ha, post-emergence, block with (B1.14) Tembotrione
  Herbicidal action 21 DAT [%] against Bidens pilosa: 10%
Bidens pilosa; [1]
  Herbicidal action 21 DAT [%] against Bidens pilosa: 25%
Bidens pilosa; [2]
  Herbicidal action 21 DAT [%] against Bidens pilosa: 25%
Ipomoea hederacea
  Herbicidal action 37 DAT [%] against Ipomoea hederacea: 0%
Amaranthus palmeri; [3]
  pest or weed control at 5 g/ha: 10%
  pest or weed control at 15 g/ha: 20%

## CS(=O)(=O)c1cc(C(F)(F)F)ccc1C(=O)c1cnoc1C1CC1 [(B4.18) Isoxaflutole]
Brachiaria platyphylla; 15 g of a.i./ha
  Herbicidal action 21 DAT [%] against Brachiaria platyphylla: 20%
Brachiaria platyphylla; 45 g of a.i./ha
  Herbicidal action 21 DAT [%] against Brachiaria platyphylla: 30%
Sorghum halepense; 45 g of a.i./ha
  Herbicidal action 21 DAT [%] against Sorghum halepense: 60%
Bidens pilosa; 5 g of a.i./ha
  Herbicidal action 21 DAT [%] against Bidens pilosa: 20%
Bidens pilosa; 45 g of a.i./ha
  Herbicidal action 21 DAT [%] against Bidens pilosa: 60%
Abutilon theophrasti
  Herbicidal action 37 DAT [%] against Abutilon theophrasti: 58%
Amaranthus palmeri; [4]
  pest or weed control at 5 g/ha: 10%
  pest or weed control at 15 g/ha: 10%
Amaranthus palmeri; Amaranthus palmeri, post-emergence, 504 h, 45 g of a.i./ha, read-out: Herbicidal action 21 DAT [%] against Amaranthus palmeri
  pest or weed control at 45 g/ha: 20%
Digitaria sanguinalis; 15 g of a.i./ha
  Herbicidal action 21 DAT [%] against Digitaria sanguinalis: 10%
Digitaria sanguinalis; 45 g of a.i./ha
  Herbicidal action 21 DAT [%] against Digitaria sanguinalis: 25%
